Numbers after ± are expanded uncertainties.
Tests used:
[1] = Liquid; for mass density: 298.15 K, 101.33 kPa, Vibrating tube method
[2] = refractive index (Na D-line) (dimensionless); conditions: 298.15 K; 101.33 kPa; Liquid; Standard Abbe refractometry

Row | SMILES | mass density [1] [kg/m3] | vapor or sublimation pressure ([1]; 418.69 K) [kPa] | refractive index [2] | vapor or sublimation pressure ([1]; 363.16 K) [kPa] | vapor or sublimation pressure ([1]; 369.75 K) [kPa]
1 | CCCCOC(=O)CC [butyl propanoate] | 870.88 ± 0.23 | 101.3 ± 2 | 1.3992 ± 0.0005 |  | 
2 | CCCOCCC [dipropyl ether] | 741.81 ± 0.16 |  | 1.3784 ± 0.0005 | 101.3 ± 2 | 
3 | CCCO [propan-1-ol] | 799.62 ± 0.14 |  | 1.3836 ± 0.0005 |  | 101.3 ± 2
